Measured values from ChEMBL document CHEMBL4033663, “Design, combinatorial synthesis and biological evaluations of novel 3-amino-1'-((1-aryl-1H-1,2,3-triazol-5-yl)methyl)-2'-oxospiro[benzo[a] pyrano[2,3-c]phenazine-1,3'-indoline]-2-carbonitrile antitumor hybrid molecules” (Eur J Med Chem, 2017).

Each compound was assayed on L02 (assay: Antiproliferative activity against human L02 cells after 48 hrs by MTT assay). Conditions: L02, 48 h.
Type: cell-based

Compound	IC50 [µM]
CC(=O)Nc1ccc(-n2nncc2CN2C(=O)C3(C(C#N)=C(N)Oc4c(N)cc5nc6ccccc6nc5c43)c3ccccc32)cc1 (centres undefined)	> 50
Cc1cc(C)cc(-n2nncc2CN2C(=O)C3(C(C#N)=C(N)Oc4c3c3nc5ccccc5nc3c3ccccc43)c3ccccc32)c1 (centres undefined)	> 50
N#CC1=C(N)Oc2c(N)cc3nc4ccccc4nc3c2C12C(=O)N(Cc1cnnn1-c1cc(Cl)ccc1Cl)c1ccccc12 (centres undefined)	> 50
N#CC1=C(N)Oc2c(c3nc4ccccc4nc3c3ccccc23)C12C(=O)N(Cc1cnnn1-c1cccc(Br)c1)c1ccccc12 (centres undefined)	> 50
N#CC1=C(N)Oc2c(N)cc3nc4ccccc4nc3c2C12C(=O)N(Cc1cnnn1-c1c(Cl)cc(Cl)cc1Cl)c1ccccc12 (centres undefined)	> 50
N#CC1=C(N)Oc2c(N)cc3nc4ccccc4nc3c2C12C(=O)N(Cc1cnnn1-c1c(F)cccc1F)c1ccccc12 (centres undefined)	> 50
Cc1ccc(Cl)cc1-n1nncc1CN1C(=O)C2(C(C#N)=C(N)Oc3c(N)cc4nc5ccccc5nc4c32)c2ccccc21 (centres undefined)	> 50
CCOc1ccccc1-n1nncc1CN1C(=O)C2(C(C#N)=C(N)Oc3c(N)cc4nc5ccccc5nc4c32)c2ccccc21 (centres undefined)	> 50
Cc1ccccc1-n1nncc1CN1C(=O)C2(C(C#N)=C(N)Oc3c2c2nc4ccccc4nc2c2ccccc32)c2ccccc21 (centres undefined)	> 50
N#CC1=C(N)Oc2c(c3nc4ccccc4nc3c3ccccc23)C12C(=O)N(Cc1cnnn1-c1ccc(Cl)cc1)c1ccccc12 (centres undefined)	> 50
COc1cc(-n2nncc2CN2C(=O)C3(C(C#N)=C(N)Oc4c(N)cc5nc6ccccc6nc5c43)c3ccccc32)c(OC)cc1Cl (centres undefined)	> 50
N#CC1=C(N)Oc2c(c3nc4ccccc4nc3c3ccccc23)C12C(=O)N(Cc1cnnn1-c1cc(Cl)ccc1Cl)c1ccccc12 (centres undefined)	> 50
CCOc1ccc(-n2nncc2CN2C(=O)C3(C(C#N)=C(N)Oc4c(N)cc5nc6ccccc6nc5c43)c3ccccc32)cc1 (centres undefined)	> 50
CCc1cccc(C)c1-n1nncc1CN1C(=O)C2(C(C#N)=C(N)Oc3c(N)cc4nc5ccccc5nc4c32)c2ccccc21 (centres undefined)	> 50

What follows are compounds tested on MCF7 (assay: Antiproliferative activity against human MCF7 cells after 48 hrs by MTT assay). Conditions: MCF7, 48 h.
Type: functional, cell-based

Compound	IC50 [µM]
CC(=O)Nc1ccc(-n2nncc2CN2C(=O)C3(C(C#N)=C(N)Oc4c(N)cc5nc6ccccc6nc5c43)c3ccccc32)cc1 (centres undefined)	> 50
Cc1cc(C)cc(-n2nncc2CN2C(=O)C3(C(C#N)=C(N)Oc4c3c3nc5ccccc5nc3c3ccccc43)c3ccccc32)c1 (centres undefined)	> 50
N#CC1=C(N)Oc2c(N)cc3nc4ccccc4nc3c2C12C(=O)N(Cc1cnnn1-c1cc(Cl)ccc1Cl)c1ccccc12 (centres undefined)	33.2
N#CC1=C(N)Oc2c(c3nc4ccccc4nc3c3ccccc23)C12C(=O)N(Cc1cnnn1-c1cccc(Br)c1)c1ccccc12 (centres undefined)	> 50
N#CC1=C(N)Oc2c(N)cc3nc4ccccc4nc3c2C12C(=O)N(Cc1cnnn1-c1c(Cl)cc(Cl)cc1Cl)c1ccccc12 (centres undefined)	37.8
N#CC1=C(N)Oc2c(N)cc3nc4ccccc4nc3c2C12C(=O)N(Cc1cnnn1-c1c(F)cccc1F)c1ccccc12 (centres undefined)	> 50
Cc1ccc(Cl)cc1-n1nncc1CN1C(=O)C2(C(C#N)=C(N)Oc3c(N)cc4nc5ccccc5nc4c32)c2ccccc21 (centres undefined)	43.5
CCOc1ccccc1-n1nncc1CN1C(=O)C2(C(C#N)=C(N)Oc3c(N)cc4nc5ccccc5nc4c32)c2ccccc21 (centres undefined)	> 50
Cc1ccccc1-n1nncc1CN1C(=O)C2(C(C#N)=C(N)Oc3c2c2nc4ccccc4nc2c2ccccc32)c2ccccc21 (centres undefined)	> 50
N#CC1=C(N)Oc2c(c3nc4ccccc4nc3c3ccccc23)C12C(=O)N(Cc1cnnn1-c1ccc(Cl)cc1)c1ccccc12 (centres undefined)	> 50
COc1cc(-n2nncc2CN2C(=O)C3(C(C#N)=C(N)Oc4c(N)cc5nc6ccccc6nc5c43)c3ccccc32)c(OC)cc1Cl (centres undefined)	> 50
N#CC1=C(N)Oc2c(c3nc4ccccc4nc3c3ccccc23)C12C(=O)N(Cc1cnnn1-c1cc(Cl)ccc1Cl)c1ccccc12 (centres undefined)	> 50
CCOc1ccc(-n2nncc2CN2C(=O)C3(C(C#N)=C(N)Oc4c(N)cc5nc6ccccc6nc5c43)c3ccccc32)cc1 (centres undefined)	26.8
CCc1cccc(C)c1-n1nncc1CN1C(=O)C2(C(C#N)=C(N)Oc3c(N)cc4nc5ccccc5nc4c32)c2ccccc21 (centres undefined)	> 50

The compounds below were run on A549 (assay: Antiproliferative activity against human A549 cells after 48 hrs by MTT assay). Conditions: A549, 48 h.
Type: functional, cell-based

Compound	IC50 [µM]
CC(=O)Nc1ccc(-n2nncc2CN2C(=O)C3(C(C#N)=C(N)Oc4c(N)cc5nc6ccccc6nc5c43)c3ccccc32)cc1 (centres undefined)	> 50
Cc1cc(C)cc(-n2nncc2CN2C(=O)C3(C(C#N)=C(N)Oc4c3c3nc5ccccc5nc3c3ccccc43)c3ccccc32)c1 (centres undefined)	> 50
N#CC1=C(N)Oc2c(N)cc3nc4ccccc4nc3c2C12C(=O)N(Cc1cnnn1-c1cc(Cl)ccc1Cl)c1ccccc12 (centres undefined)	10.9
N#CC1=C(N)Oc2c(c3nc4ccccc4nc3c3ccccc23)C12C(=O)N(Cc1cnnn1-c1cccc(Br)c1)c1ccccc12 (centres undefined)	> 50
N#CC1=C(N)Oc2c(N)cc3nc4ccccc4nc3c2C12C(=O)N(Cc1cnnn1-c1c(Cl)cc(Cl)cc1Cl)c1ccccc12 (centres undefined)	> 50
N#CC1=C(N)Oc2c(N)cc3nc4ccccc4nc3c2C12C(=O)N(Cc1cnnn1-c1c(F)cccc1F)c1ccccc12 (centres undefined)	> 50
Cc1ccc(Cl)cc1-n1nncc1CN1C(=O)C2(C(C#N)=C(N)Oc3c(N)cc4nc5ccccc5nc4c32)c2ccccc21 (centres undefined)	> 50
CCOc1ccccc1-n1nncc1CN1C(=O)C2(C(C#N)=C(N)Oc3c(N)cc4nc5ccccc5nc4c32)c2ccccc21 (centres undefined)	> 50
Cc1ccccc1-n1nncc1CN1C(=O)C2(C(C#N)=C(N)Oc3c2c2nc4ccccc4nc2c2ccccc32)c2ccccc21 (centres undefined)	> 50
N#CC1=C(N)Oc2c(c3nc4ccccc4nc3c3ccccc23)C12C(=O)N(Cc1cnnn1-c1ccc(Cl)cc1)c1ccccc12 (centres undefined)	> 50
COc1cc(-n2nncc2CN2C(=O)C3(C(C#N)=C(N)Oc4c(N)cc5nc6ccccc6nc5c43)c3ccccc32)c(OC)cc1Cl (centres undefined)	> 50
N#CC1=C(N)Oc2c(c3nc4ccccc4nc3c3ccccc23)C12C(=O)N(Cc1cnnn1-c1cc(Cl)ccc1Cl)c1ccccc12 (centres undefined)	> 50
CCOc1ccc(-n2nncc2CN2C(=O)C3(C(C#N)=C(N)Oc4c(N)cc5nc6ccccc6nc5c43)c3ccccc32)cc1 (centres undefined)	> 50
CCc1cccc(C)c1-n1nncc1CN1C(=O)C2(C(C#N)=C(N)Oc3c(N)cc4nc5ccccc5nc4c32)c2ccccc21 (centres undefined)	> 50

The compounds below were run on HepG2 (assay: Antiproliferative activity against human HepG2 cells after 48 hrs by MTT assay). Conditions: HepG2, 48 h.
Type: functional, cell-based

Compound	IC50 [µM]
CC(=O)Nc1ccc(-n2nncc2CN2C(=O)C3(C(C#N)=C(N)Oc4c(N)cc5nc6ccccc6nc5c43)c3ccccc32)cc1 (centres undefined)	> 50
Cc1cc(C)cc(-n2nncc2CN2C(=O)C3(C(C#N)=C(N)Oc4c3c3nc5ccccc5nc3c3ccccc43)c3ccccc32)c1 (centres undefined)	> 50
N#CC1=C(N)Oc2c(N)cc3nc4ccccc4nc3c2C12C(=O)N(Cc1cnnn1-c1cc(Cl)ccc1Cl)c1ccccc12 (centres undefined)	33.1
N#CC1=C(N)Oc2c(c3nc4ccccc4nc3c3ccccc23)C12C(=O)N(Cc1cnnn1-c1cccc(Br)c1)c1ccccc12 (centres undefined)	> 50
N#CC1=C(N)Oc2c(N)cc3nc4ccccc4nc3c2C12C(=O)N(Cc1cnnn1-c1c(Cl)cc(Cl)cc1Cl)c1ccccc12 (centres undefined)	37.8
N#CC1=C(N)Oc2c(N)cc3nc4ccccc4nc3c2C12C(=O)N(Cc1cnnn1-c1c(F)cccc1F)c1ccccc12 (centres undefined)	> 50
Cc1ccc(Cl)cc1-n1nncc1CN1C(=O)C2(C(C#N)=C(N)Oc3c(N)cc4nc5ccccc5nc4c32)c2ccccc21 (centres undefined)	17.3
CCOc1ccccc1-n1nncc1CN1C(=O)C2(C(C#N)=C(N)Oc3c(N)cc4nc5ccccc5nc4c32)c2ccccc21 (centres undefined)	30.5
Cc1ccccc1-n1nncc1CN1C(=O)C2(C(C#N)=C(N)Oc3c2c2nc4ccccc4nc2c2ccccc32)c2ccccc21 (centres undefined)	> 50
N#CC1=C(N)Oc2c(c3nc4ccccc4nc3c3ccccc23)C12C(=O)N(Cc1cnnn1-c1ccc(Cl)cc1)c1ccccc12 (centres undefined)	> 50
COc1cc(-n2nncc2CN2C(=O)C3(C(C#N)=C(N)Oc4c(N)cc5nc6ccccc6nc5c43)c3ccccc32)c(OC)cc1Cl (centres undefined)	> 50
N#CC1=C(N)Oc2c(c3nc4ccccc4nc3c3ccccc23)C12C(=O)N(Cc1cnnn1-c1cc(Cl)ccc1Cl)c1ccccc12 (centres undefined)	> 50
CCOc1ccc(-n2nncc2CN2C(=O)C3(C(C#N)=C(N)Oc4c(N)cc5nc6ccccc6nc5c43)c3ccccc32)cc1 (centres undefined)	> 50
CCc1cccc(C)c1-n1nncc1CN1C(=O)C2(C(C#N)=C(N)Oc3c(N)cc4nc5ccccc5nc4c32)c2ccccc21 (centres undefined)	> 50

These compounds were tested on HCT-116 (assay: Antiproliferative activity against human HCT116 cells after 48 hrs by MTT assay). Conditions: HCT-116, 48 h.
Type: functional, cell-based

Compound	IC50 [µM]
CC(=O)Nc1ccc(-n2nncc2CN2C(=O)C3(C(C#N)=C(N)Oc4c(N)cc5nc6ccccc6nc5c43)c3ccccc32)cc1 (centres undefined)	> 50
Cc1cc(C)cc(-n2nncc2CN2C(=O)C3(C(C#N)=C(N)Oc4c3c3nc5ccccc5nc3c3ccccc43)c3ccccc32)c1 (centres undefined)	> 50
N#CC1=C(N)Oc2c(N)cc3nc4ccccc4nc3c2C12C(=O)N(Cc1cnnn1-c1cc(Cl)ccc1Cl)c1ccccc12 (centres undefined)	> 50
N#CC1=C(N)Oc2c(c3nc4ccccc4nc3c3ccccc23)C12C(=O)N(Cc1cnnn1-c1cccc(Br)c1)c1ccccc12 (centres undefined)	> 50
N#CC1=C(N)Oc2c(N)cc3nc4ccccc4nc3c2C12C(=O)N(Cc1cnnn1-c1c(Cl)cc(Cl)cc1Cl)c1ccccc12 (centres undefined)	12.1
N#CC1=C(N)Oc2c(N)cc3nc4ccccc4nc3c2C12C(=O)N(Cc1cnnn1-c1c(F)cccc1F)c1ccccc12 (centres undefined)	> 50
Cc1ccc(Cl)cc1-n1nncc1CN1C(=O)C2(C(C#N)=C(N)Oc3c(N)cc4nc5ccccc5nc4c32)c2ccccc21 (centres undefined)	37.2
CCOc1ccccc1-n1nncc1CN1C(=O)C2(C(C#N)=C(N)Oc3c(N)cc4nc5ccccc5nc4c32)c2ccccc21 (centres undefined)	> 50
Cc1ccccc1-n1nncc1CN1C(=O)C2(C(C#N)=C(N)Oc3c2c2nc4ccccc4nc2c2ccccc32)c2ccccc21 (centres undefined)	> 50
N#CC1=C(N)Oc2c(c3nc4ccccc4nc3c3ccccc23)C12C(=O)N(Cc1cnnn1-c1ccc(Cl)cc1)c1ccccc12 (centres undefined)	> 50
COc1cc(-n2nncc2CN2C(=O)C3(C(C#N)=C(N)Oc4c(N)cc5nc6ccccc6nc5c43)c3ccccc32)c(OC)cc1Cl (centres undefined)	> 50
N#CC1=C(N)Oc2c(c3nc4ccccc4nc3c3ccccc23)C12C(=O)N(Cc1cnnn1-c1cc(Cl)ccc1Cl)c1ccccc12 (centres undefined)	> 50
CCOc1ccc(-n2nncc2CN2C(=O)C3(C(C#N)=C(N)Oc4c(N)cc5nc6ccccc6nc5c43)c3ccccc32)cc1 (centres undefined)	> 50
CCc1cccc(C)c1-n1nncc1CN1C(=O)C2(C(C#N)=C(N)Oc3c(N)cc4nc5ccccc5nc4c32)c2ccccc21 (centres undefined)	> 50

The compounds below were run on HUVEC (assay: Antiproliferative activity against human HUVEC cells after 48 hrs by MTT assay). Conditions: not given.
Type: cell-based

Compound	IC50 [µM]
CC(=O)Nc1ccc(-n2nncc2CN2C(=O)C3(C(C#N)=C(N)Oc4c(N)cc5nc6ccccc6nc5c43)c3ccccc32)cc1 (centres undefined)	> 50
Cc1cc(C)cc(-n2nncc2CN2C(=O)C3(C(C#N)=C(N)Oc4c3c3nc5ccccc5nc3c3ccccc43)c3ccccc32)c1 (centres undefined)	> 50
N#CC1=C(N)Oc2c(N)cc3nc4ccccc4nc3c2C12C(=O)N(Cc1cnnn1-c1cc(Cl)ccc1Cl)c1ccccc12 (centres undefined)	> 50
N#CC1=C(N)Oc2c(c3nc4ccccc4nc3c3ccccc23)C12C(=O)N(Cc1cnnn1-c1cccc(Br)c1)c1ccccc12 (centres undefined)	> 50
N#CC1=C(N)Oc2c(N)cc3nc4ccccc4nc3c2C12C(=O)N(Cc1cnnn1-c1c(Cl)cc(Cl)cc1Cl)c1ccccc12 (centres undefined)	18.3
N#CC1=C(N)Oc2c(N)cc3nc4ccccc4nc3c2C12C(=O)N(Cc1cnnn1-c1c(F)cccc1F)c1ccccc12 (centres undefined)	> 50
Cc1ccc(Cl)cc1-n1nncc1CN1C(=O)C2(C(C#N)=C(N)Oc3c(N)cc4nc5ccccc5nc4c32)c2ccccc21 (centres undefined)	> 50
CCOc1ccccc1-n1nncc1CN1C(=O)C2(C(C#N)=C(N)Oc3c(N)cc4nc5ccccc5nc4c32)c2ccccc21 (centres undefined)	> 50
Cc1ccccc1-n1nncc1CN1C(=O)C2(C(C#N)=C(N)Oc3c2c2nc4ccccc4nc2c2ccccc32)c2ccccc21 (centres undefined)	> 50
N#CC1=C(N)Oc2c(c3nc4ccccc4nc3c3ccccc23)C12C(=O)N(Cc1cnnn1-c1ccc(Cl)cc1)c1ccccc12 (centres undefined)	> 50
COc1cc(-n2nncc2CN2C(=O)C3(C(C#N)=C(N)Oc4c(N)cc5nc6ccccc6nc5c43)c3ccccc32)c(OC)cc1Cl (centres undefined)	> 50
N#CC1=C(N)Oc2c(c3nc4ccccc4nc3c3ccccc23)C12C(=O)N(Cc1cnnn1-c1cc(Cl)ccc1Cl)c1ccccc12 (centres undefined)	> 50
CCOc1ccc(-n2nncc2CN2C(=O)C3(C(C#N)=C(N)Oc4c(N)cc5nc6ccccc6nc5c43)c3ccccc32)cc1 (centres undefined)	> 50
CCc1cccc(C)c1-n1nncc1CN1C(=O)C2(C(C#N)=C(N)Oc3c(N)cc4nc5ccccc5nc4c32)c2ccccc21 (centres undefined)	> 50
